The values below are quoted from earlier work in PMC4906314, “Direct interaction of beta-amyloid with Na,K-ATPase as a putative regulator of the enzyme function” (Scientific Reports, 2016).

This series deals with Na,K-ATPase. Conditions: at the same conditions; read-out: Kd for complexes of Na,K-ATPase with CTS.

As usually defined, the Kd is a measure of binding affinity in units of concentration. Turning to `C[C@]12CC[C@H](O)C[C@@]1(O)CC[C@@H]1[C@@H]2CC[C@]2(C)[C@@H](c3ccc(=O)oc3)C[C@H]3O[C@]132` [marinobufagenin], the dissociation constant Kd was 1500 nM.
